Results published in ChEMBL document CHEMBL5661943, “ASAP - In vitro antiviral effect” (2024).

Experiments:
[1] = tested on: Zika virus; assay: EC50 is reported via analysis of immunofluorescence staining. The assay has been performed by Icahn School of Medicine at Mount Sinai.; assay type: functional, organism-based, Chlorocebus sabaeus, VeroE6/TMPRSS2; settings: for EC90: P-gp concentration 2 uM, P-gp inhibitor Elacidar
[2] = tested on: dengue virus type 2; assay: Functional immunofluorescence assay to measure dose dependent changes in antiviral-drug inhibitory efficacy against Dengue virus type 2 Thailand/16681/84 in Vero E6/TMPRSS2 cells (cotreated with P-gp inhibitor, Elacridar). Cells are treated with antiviral candidates that are serially diluted, following infection, cells are fixed. EC50 is reported via analysis of immunofluorescence staining. The assay has been performed by Icahn School of Medicine at Mount Sinai.; assay type: organism-based, Chlorocebus sabaeus, VeroE6/TMPRSS2
[3] = tested on: Zika virus; assay: Functional CPE-based assay to measure dose dependent changes in antiviral-drug inhibitory efficacy against Zika virus MR766 in Vero E6 miRFP670 cells. Cells are treated with antiviral candidates that are serially diluted. EC50 is reported via analysis of MTS assay as a readout of CPE. The assay has been performed by KU Leuven.; assay type: organism-based, Chlorocebus sabaeus, Vero C1008; settings: Zika virus; for EC50: Vero C1008
[4] = tested on: dengue virus type 2; assay: Functional assay to measure dose dependent changes in antiviral-drug inhibitory efficacy against Dengue virus type 2 New Guinea C in Vero E6 miRFP670 cells (cotreated with P-gp inhibitor, CP100356). Cells are treated with antiviral candidates that are serially diluted, following infection, cells are fixed. EC50 is reported via analysis of fluorescence intensity using high-content imager. The …; assay type: organism-based, Chlorocebus sabaeus, Vero C1008; settings: Dengue virus

SMILES	EC50 ([1]; Zika virus, VeroE6/TMPRSS2)	EC50 ([2]; Dengue virus, VeroE6/TMPRSS2)	EC90 ([2]; Dengue virus, VeroE6/TMPRSS2)	EC50 [3]	EC50 ([4]; Vero C1008)	also measured
Clc1ccc2[nH]cc(Cc3ccc(-c4nn[nH]n4)cc3)c2c1	39.4 µM	24.6 µM	34 µM	> 50 µM	> 50 µM	EC90 ([1]; Zika virus, VeroE6/TMPRSS2, Baseline response 0 %, Hill slope -2.483, Maximum measured 171.794 %, Maximum response 100 %, Minimum measured 35.965 %, R squared 0.343): > 50 µM; EC90 ([3]; Vero C1008, Maximum measured 1.604 %, Minimum measured -1.05 %): > 50 µM; EC90 ([4]; Vero C1008): > 50 µM
O=C(Nc1ccc2c(c1)CNC2)c1cc(Cl)cc(C2CC2)c1	> 5.56 µM	> 50 µM		< 0.391 µM	> 12.5 µM	EC90 ([1]; Zika virus, VeroE6/TMPRSS2, Baseline response 0 %, Hill slope -0.303, Maximum measured 133.833 %, Maximum response 100 %, Minimum measured 73.063 %, R squared 0.118): > 5.56 µM; EC90 ([2]; Dengue virus, VeroE6/TMPRSS2, Baseline response 0 %, Hill slope -0.218, Maximum measured 127.968 %, Maximum response 100 %, Minimum measured 35.242 %, P-gp concentration 2 uM, R squared 0.016, P-gp inhibitor Elacidar): > 50 µM; EC90 ([3]; Vero C1008, Baseline response 0 %, Hill slope -0.16, Maximum measured 19.084 %, Maximum response 100 %, Minimum measured -10.525 %, R squared 0.01): < 0.391 µM; EC90 ([4]; Vero C1008, Baseline response 0 %, Hill slope -18.192, Maximum measured 115.18 %, Maximum response 100 %, Minimum measured 61.318 %, P-gp concentration 500 nM, R squared 0.219, P-gp inhibitor CP100356): > 12.5 µM
O=C(Nc1ccc2c(c1)CNCCC2)c1cc(Cl)cc2[nH]ncc12	47.6 µM	26 µM	45 µM	> 50 µM	> 1.56 µM	EC90 ([1]; Zika virus, VeroE6/TMPRSS2, Baseline response 0 %, Hill slope -16.818, Maximum measured 150.619 %, Maximum response 100 %, Minimum measured 30.484 %, R squared 0.241): > 50 µM; EC90 ([3]; Vero C1008, Baseline response 0 %, Hill slope 0.723, Maximum measured 1.937 %, Maximum response 100 %, Minimum measured -1.308 %, R squared 0.05): > 50 µM; EC90 ([3]; Vero C1008, Maximum measured 5.01 %, Minimum measured -5.78 %): > 50 µM; EC90 ([4]; Vero C1008, Baseline response 0 %, Hill slope 9.827, Maximum measured 112.729 %, Maximum response 100 %, Minimum measured 86.907 %, P-gp concentration 500 nM, R squared 0.124, P-gp inhibitor CP100356): > 1.56 µM
O=C(Nc1cc(Cl)cc(C(=O)NCc2ccc(-c3nnn[nH]3)cc2)c1)OCc1ccccc1	> 16.7 µM	24.8 µM	40.9 µM	> 50 µM	> 50 µM	EC90 ([1]; Zika virus, VeroE6/TMPRSS2, Maximum measured 73.474 %, Minimum measured 51.372 %): > 16.7 µM; EC90 ([3]; Vero C1008, Baseline response 0 %, Hill slope 2.99, Maximum measured 29.669 %, Maximum response 100 %, Minimum measured 0.824 %, R squared 0.934): > 50 µM; EC90 ([4]; Vero C1008, Maximum measured 125.704 %, Minimum measured 70.659 %, P-gp concentration 500 nM, P-gp inhibitor CP100356): > 50 µM
CC(C)(C)NC(=O)[C@H](Nc1cccc(-c2nn[nH]n2)c1)c1cc(Cl)cc(NC(=O)OCc2ccccc2)c1	37.4 µM	> 50 µM		49.8 µM	50 µM	EC90 ([1]; Zika virus, VeroE6/TMPRSS2, Baseline response 0 %, Hill slope -8.55, Maximum measured 97.768 %, Maximum response 77.157 %, Minimum measured 5.982 %, R squared 0.78): 48.4 µM; EC90 ([2]; Dengue virus, VeroE6/TMPRSS2, Maximum measured 98.938 %, Minimum measured 28.549 %, P-gp concentration 2 uM, P-gp inhibitor Elacidar): > 50 µM; EC90 ([3]; Vero C1008, Baseline response 0 %, Hill slope 4.346, Maximum measured 50.323 %, Maximum response 100 %, Minimum measured -0.582 %, R squared 0.944): > 50 µM; EC90 ([4]; Vero C1008, Baseline response 0 %, Hill slope -29.373, Maximum measured 114.47 %, Maximum response 100 %, Minimum measured 52.367 %, P-gp concentration 500 nM, R squared 0.626, P-gp inhibitor CP100356): > 50 µM
CC(C)c1nc2c(C(=O)Nc3ccc4c(c3)CNC4)cc(Br)cc2[nH]1	> 5.56 µM	> 16.7 µM		< 0.391 µM	> 3.12 µM	EC90 ([1]; Zika virus, VeroE6/TMPRSS2, Baseline response 0 %, Hill slope 0.282, Maximum measured 117.995 %, Maximum response 100 %, Minimum measured 67.231 %, R squared 0.042): > 5.56 µM; EC90 ([2]; Dengue virus, VeroE6/TMPRSS2, Maximum measured 259.996 %, Minimum measured 97.005 %, P-gp concentration 2 uM, P-gp inhibitor Elacidar): > 16.7 µM; EC90 ([3]; Vero C1008, Baseline response 0 %, Hill slope -0.56, Maximum measured 41.831 %, Maximum response 100 %, Minimum measured -11.106 %, R squared 0.026): < 0.391 µM; EC90 ([4]; Vero C1008, Maximum measured 127.324 %, Minimum measured 101.275 %, P-gp concentration 500 nM, P-gp inhibitor CP100356): > 3.12 µM
O=C(Nc1cc(Cl)cc(C(=O)Nc2cccc(C3CCNCC3)c2)c1)OCc1ccccc1	3.24 µM	3.24 µM		> 50 µM	4.04 µM	EC90 ([1]; Zika virus, VeroE6/TMPRSS2, Maximum measured 120.28 %, Minimum measured 106.347 %): > 1.85 µM; EC90 ([1]; Zika virus, VeroE6/TMPRSS2, Baseline response 0 %, Hill slope -10.935, Maximum measured 129.824 %, Maximum response 100 %, Minimum measured 42.275 %, R squared 0.16): > 3.33 µM; EC50 ([1]; veroe6/tmprss2): > 1.85 µM; EC90 ([2]; Baseline response 0 %, Hill slope -7.018, Maximum measured 136.667 %, Maximum response 100 %, Minimum measured 60.314 %, P-gp concentration 2 uM, R squared 0.441, P-gp inhibitor Elacidar): > 1.85 µM; EC90 ([2]; Dengue virus, VeroE6/TMPRSS2, Baseline response 0 %, Hill slope -0.392, Maximum measured 120.272 %, Maximum response 100 %, Minimum measured 45.482 %, P-gp concentration 2 uM, R squared 0.27, P-gp inhibitor Elacidar): > 3.33 µM; EC50 ([2]; veroe6/tmprss2): > 1.85 µM; EC90 ([3]; Vero C1008, Maximum measured 1.3 %, Minimum measured -10.726 %): > 50 µM; EC90 ([4]; Vero C1008, Baseline response 0 %, EC90 CI (lower) 2.724 uM, EC90 CI (upper) 4.009 uM, Hill slope -10.989, Maximum measured 107.904 %, Maximum response 100 %, Minimum measured 0.838 %, P-gp concentration 500 nM, R squared 0.983, P-gp inhibitor CP100356): 4.93 µM
O=C(NS(=O)(=O)C1CC1)c1cc(Cl)ccc1NS(=O)(=O)c1ccc(Oc2ccccc2Cl)cc1	45.9 µM	42.5 µM		> 50 µM	44.5 µM	EC90 ([1]; Zika virus, VeroE6/TMPRSS2, Baseline response 0 %, Hill slope -22.702, Maximum measured 122.036 %, Maximum response 100 %, Minimum measured 12.187 %, R squared 0.505): > 50 µM; EC90 ([2]; Dengue virus, VeroE6/TMPRSS2, Baseline response 0 %, Hill slope -20.818, Maximum measured 101.748 %, Maximum response 70 %, Minimum measured 2.339 %, P-gp concentration 2 uM, R squared 0.5, P-gp inhibitor Elacidar): 47.3 µM; EC90 ([3]; Vero C1008, Baseline response 0 %, Hill slope 1.706, Maximum measured 45.349 %, Maximum response 100 %, Minimum measured -3.564 %, R squared 0.879): > 50 µM; EC90 ([4]; Vero C1008, Baseline response 0 %, Hill slope -56.608, Maximum measured 108.404 %, Maximum response 100 %, Minimum measured 0.137 %, P-gp concentration 500 nM, R squared 0.959, P-gp inhibitor CP100356): 46.3 µM
O=C(O)COc1cccc(NC(=O)c2cc(Cl)cc(NC(=O)OCc3ccccc3)c2)c1	> 50 µM	> 50 µM		> 50 µM	> 50 µM	EC90 ([1]; Zika virus, VeroE6/TMPRSS2, Baseline response 0 %, Hill slope 0.101, Maximum measured 106.686 %, Maximum response 100 %, Minimum measured 54.693 %, R squared 0.072): > 50 µM; EC90 ([2]; Dengue virus, VeroE6/TMPRSS2, Maximum measured 97.013 %, Minimum measured 38.667 %, P-gp concentration 2 uM, P-gp inhibitor Elacidar): > 50 µM; EC90 ([3]; Vero C1008, Maximum measured -[…], Minimum measured -2.209 %): > 50 µM; EC90 ([4]; Vero C1008, Maximum measured 107.555 %, Minimum measured 104.836 %, P-gp concentration 500 nM, P-gp inhibitor CP100356): > 50 µM
CCOc1cccc(-c2ccc(S(=O)(=O)Nc3ccc(Cl)cc3C(=O)O)cc2C)c1	2.44 µM	0.175 µM	> 16.7 µM	> 50 µM	22.3 µM	EC90 ([1]; Zika virus, VeroE6/TMPRSS2, Baseline response 0 %, Hill slope -0.481, Maximum measured 136.466 %, Maximum response 100 %, Minimum measured 2.895 %, R squared 0.53): > 50 µM; EC90 ([3]; Vero C1008, Baseline response 0 %, Hill slope -0.317, Maximum measured 5.247 %, Maximum response 100 %, Minimum measured -4.425 %, R squared 0.236): > 50 µM; EC90 ([4]; Vero C1008, Baseline response 0 %, Hill slope -31.955, Maximum measured 106.035 %, Maximum response 100 %, Minimum measured 0.035 %, P-gp concentration 500 nM, R squared 0.9, P-gp inhibitor CP100356): 23.9 µM
COC(=O)c1cc(NC(=O)c2cc(Cl)cc(NC(=O)OCc3ccccc3)c2)cc(-c2nnn[nH]2)c1	> 16.7 µM	39.8 µM		> 50 µM	43.1 µM	EC90 ([1]; Zika virus, VeroE6/TMPRSS2, Maximum measured 163.156 %, Minimum measured 112.225 %): > 16.7 µM; EC90 ([2]; Dengue virus, VeroE6/TMPRSS2, Baseline response 0 %, Hill slope -17.631, Maximum measured 314.134 %, Maximum response 266.23 %, Minimum measured 4.599 %, P-gp concentration 2 uM, R squared 0.779, P-gp inhibitor Elacidar): 45 µM; EC90 ([3]; Vero C1008, Maximum measured 4.051 %, Minimum measured -3.87 %): > 50 µM; EC90 ([4]; Vero C1008): 49.4 µM
NCc1cccc(CCc2cc(Cl)cc(NC(=O)OCc3ccccc3)c2)c1	> 50 µM	> 1.85 µM		> 50 µM	7.13 µM	EC90 ([1]; Zika virus, VeroE6/TMPRSS2, Maximum measured 110.897 %, Minimum measured 60.854 %): > 50 µM; EC90 ([2]; Dengue virus, VeroE6/TMPRSS2, Maximum measured 240.936 %, Minimum measured 110.203 %, P-gp concentration 2 uM, P-gp inhibitor Elacidar): > 1.85 µM; EC90 ([3]; Vero C1008, Maximum measured 1.168 %, Minimum measured -5.971 %): > 50 µM; EC90 ([4]; Vero C1008, Baseline response 0 %, EC90 CI (lower) 3.921 uM, EC90 CI (upper) 6.549 uM, Hill slope -6.432, Maximum measured 108.307 %, Maximum response 100 %, Minimum measured 4.257 %, P-gp concentration 500 nM, R squared 0.964, P-gp inhibitor CP100356): 10 µM
